The results in this text go back to patent publication US11932606B2, “Anti-cancer/anti-fibrosis compounds” (THE REGENTS OF THE UNIVERSITY OF CALIFORNIA, priority 2017, dated 2024).

Like-named read-outs stand apart in the source and are kept apart here.

In one data set the target is CDK19 (inactive) (Homo sapiens (Human), UniProt Q9BWU1). As to the kind of experiment: CDK19 (inactive) LanthaScreen Eu kinase binding assay. The note with it: read-out: IC50 against CDK19. The procedure: Compounds were screened in 1% DMSO (final) in the well. For 10 point titrations, 3-fold serial dilutions were conducted from the starting concentration.
CDK19 (inactive), sequence (Q9BWU1 whole entry): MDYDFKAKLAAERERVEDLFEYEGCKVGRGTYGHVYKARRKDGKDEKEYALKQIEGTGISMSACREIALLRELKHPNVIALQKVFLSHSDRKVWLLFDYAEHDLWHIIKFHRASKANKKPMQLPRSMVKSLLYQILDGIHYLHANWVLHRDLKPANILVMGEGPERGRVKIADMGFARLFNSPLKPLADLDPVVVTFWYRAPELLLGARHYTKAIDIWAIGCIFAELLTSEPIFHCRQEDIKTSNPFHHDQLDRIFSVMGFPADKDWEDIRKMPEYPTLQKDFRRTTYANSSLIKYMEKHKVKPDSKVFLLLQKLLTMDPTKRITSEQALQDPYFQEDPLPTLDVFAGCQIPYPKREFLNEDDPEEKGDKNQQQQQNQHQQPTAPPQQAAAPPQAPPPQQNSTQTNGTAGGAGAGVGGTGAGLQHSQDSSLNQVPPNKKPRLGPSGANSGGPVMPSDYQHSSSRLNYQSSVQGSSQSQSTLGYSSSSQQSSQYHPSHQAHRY
The Bar-coded, low volume, white 384-well plate (Greiner Cat. #784207) were used for the assay. […] Then the Kinase Reaction was incubated at room temperature for 60 minutes. After the 1 hour Kinase Reaction incubation, the plate was read on a fluorescence plate reader (Infinite F500, Tecan Systems Inc, USA) and data was analyzed using XLfit from IDBS. The dose response curve was curve fit to model number 205 (sigmoidal dose-response model).
(In general: Time-resolved FRET reads energy transfer from a long-lived donor to a nearby acceptor.)

The next data set has as its target HIPK2 (Homo sapiens (Human), UniProt Q9H2X6). The experiment in a line: HIPK2 enzymatic activity inhibition (Z'-LYTE). Type of data set: biochemical. The following applies: read-out: HIPK2 IC50. On the procedure: HIPK2 Enzymatic Activity Inhibition: Determination of IC50 Values for Selected Compounds
The half maximal inhibitory concentration (IC50) with respect to HIPK2 inhibition was determined for the compounds of the invention by using Z′-LYTE™ from ThermoFisher Scientific's SelectScreen™ Biochemical Kinase Profiling Service (Waltham, MA). Compounds were screened in 1% DMSO (final) in the well. For 10 point titrations, 3-fold serial dilutions were conducted from the starting concentration. The 2×HIPK2/Ser/Thr 09 mixture was prepared in 50 mM HEPES pH 7.5, 0.01% BRIJ-35, 10 mM MgCl2, 1 mM EGTA.
100 nL of 100× test compound in 100% DMSO, 2.4 uL of kinase buffer (50 mM HEPES pH 7.5, 0.01% BRIJ-35, 10 mM MgCl2, 1 mM EGTA), 5 uL of 2×HIPK2/Ser/Thr 09 mixture, and 2.5 uL of 4×ATP solution were mixed and agitated for 30 seconds. Then the Kinase Reaction was incubated at room temperature for 60 minutes. […] After 30 second of plate shake, the reaction plate was incubated for another 60 min at room temperature. Then the plate was read on a fluorescence plate reader (CLARIOstar, BMG Labtech, Germany) as plate reader and data was analyzed using XLfit from IDBS.

The target of the next data set is CSNK2A1 (CK2 alpha 1) (Homo sapiens (Human), UniProt P68400). The experiment in a line: CK2 alpha 1 enzymatic activity inhibition (Z'-LYTE). The class given is biochemical. The following applies: read-out: CK2a IC50. The procedure:
CK2 Alpha 1 Enzymatic Activity Inhibition: Determination of IC50 Values for Selected Compounds
The half maximal inhibitory concentration (IC50) with respect to CK2 alpha 1 inhibition was determined for the compounds of the invention by using Z′-LYTE™ from ThermoFisher Scientific's SelectScreen™ Biochemical Kinase Profiling Service (Waltham, MA). Compounds were screened in 1% DMSO (final) in the well. For 10 point titrations, 3-fold serial dilutions were conducted from the starting concentration. The 2×CSNK2A1 (CK2 alpha 1)/Ser/Thr 11 mixture is prepared in 50 mM HEPES pH 7.5, 0.01% BRIJ-35, 10 mM MgCl2, 1 mM EGTA. The black 384-well plate (Corning Cat. #4514) were used for the assay. 100 nL of 100× test compound in 100% DMSO, 2.4 uL of kinase buffer (50 mM HEPES pH 7.5, 0.01% BRIJ-35, 10 mM MgCl2, 1 mM EGTA), 5 uL of 2×CSNK2A1 (CK2 alpha 1)/Ser/Thr 11 mixture, and 2.5 uL of 4×ATP solution were mixed and agitated for 30 seconds. Then the Kinase Reaction was incubated at room temperature for 60 minutes. The final 10 uL Kinase Reaction consisted of 0.68-25.7 ng CSNK2A1 (CK2 alpha 1) and 2 μM Ser/Thr 11 in 50 mM HEPES pH 7.5, 0.01% BRIJ-35, 10 mM MgCl2, 1 mM EGTA. After the 1 hour Kinase Reaction incubation, 5 uL of a 1:16 dilution of Development Reagent B is added. After 30 second of plate shake, the reaction plate was incubated for another 60 min at room temperature. Then the plate was read on a fluorescence plate reader (CLARIOstar, BMG Labtech, Germany) and data was analyzed using XLfit from IDBS. The dose response curve was curve fit to model number 205 (sigmoidal dose-response model).

Another data set concerns MV-4-11 xenograft. As to the kind of experiment: MV-4-11 mouse xenograft model. Type of data set: in vivo. The note with it: 50 mg/kg orally b.i.d., 21 days. On the procedure: 40 CR female NCr nu/nu mice (Charles River Laboratories) were injected with 1×10^7 MV-4-11 cells in 50% matrigel s.c. in flank. Cell Injection Volume is 0.1 mL/mouse for MV-4-11 cells. Age of mice at start date is 8 to 12 weeks. Perform a pair match when tumors grow after two weeks and begin treatment. Compound 29 was given orally twice a day for 21 consecutive days. Body weight and tumor size were measured every three days. In the MV-4-11 xenograft model, mice were treated with compound 29 with 50 mg/kg for 21 days (orally, b.i.d). The tumor volume from control and vehicle group were measured, compared. […] Body weights of mice in both groups were measured and plotted.

For a further data set, the system named is SET-2. The experiment in a line: AML cell viability (CellTiter-Glo, day 7). Type of data set: cell-based. The note with it: Homo sapiens.
The subject of another data set is A549. The experiment in a line: Cell viability assay (CellTiter-Glo, day 7). Type of data set: cell-based. The following applies: Homo sapiens, 168 h; A549, day 7. On the procedure: (§1) CLL-119, Hela, HCT116, MCF7, Colo205, SW620, H2052, MSTO-211H, U-251, Colo 357, OE33, Huh-7, A549, BT474, A204 and H290 cells were acquired from UCSF Cell and Genome Engineering Core. A549-Brm3 and H2030-Brm3 were from UCSF thoracic oncology lab. All cells were plated (96-well) in triplicate at 500 cells per well for testing (n=3) with compound. Medium was changed once on day 3. On day 7, the CellTiter-Glo Luminescent Cell Viability Assay (Promega) was performed to measure the response. For cell viability assay, two independent experiments have been done.

The subject of a further data set is HCT116. The experiment in a line: Cell viability assay (CellTiter-Glo, day 7). The class given is cell-based. The note with it: Homo sapiens, HCT-116, 168 h; HCT116, day 7. On the procedure:
as §1
In general terms: In ATP-based viability assays light output follows the ATP content of the culture.

For the next data set, the system named is A549-BRM3. The experiment in a line: Cell viability assay (CellTiter-Glo, day 7). The note with it: 168 h; A549-BRM3, day 7. The class given is cell-based. The procedure: as §1
Another data set has as its system MSTO-211H. As to the kind of experiment: Cell viability assay (CellTiter-Glo, day 7). The class given is cell-based. The note with it: Homo sapiens, 168 h. On the procedure: as §1
For a further data set, the system named is Colo205. As to the kind of experiment: Cell viability assay (CellTiter-Glo, day 7). The note with it: Homo sapiens, COLO 205, 168 h; Colo205, day 7. Type of data set: cell-based. On the procedure: as §1
The next data set concerns CLL-119. The experiment in a line: Cell viability assay (CellTiter-Glo, day 7). Type of data set: cell-based. The note with it: 168 h; CLL-119, day 7. On the procedure:
as §1

Another data set has as its system U-251. As to the kind of experiment: Cell viability assay (CellTiter-Glo, day 7). The class given is cell-based. The following applies: Homo sapiens, 168 h; U-251, day 7. The procedure:
as §1

CSNK2A1 (CK2 alpha 1), sequence (P68400 whole entry): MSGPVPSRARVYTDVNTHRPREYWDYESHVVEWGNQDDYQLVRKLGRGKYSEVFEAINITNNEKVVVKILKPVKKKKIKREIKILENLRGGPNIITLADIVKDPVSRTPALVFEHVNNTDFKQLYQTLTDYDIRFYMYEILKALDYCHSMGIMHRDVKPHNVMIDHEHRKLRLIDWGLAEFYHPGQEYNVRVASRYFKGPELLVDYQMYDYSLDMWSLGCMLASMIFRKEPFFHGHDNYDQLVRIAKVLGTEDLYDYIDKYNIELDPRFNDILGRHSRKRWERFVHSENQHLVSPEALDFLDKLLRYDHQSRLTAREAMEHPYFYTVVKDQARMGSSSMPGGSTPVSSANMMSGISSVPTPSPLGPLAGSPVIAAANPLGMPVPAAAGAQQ
HIPK2, sequence (Q9H2X6 whole entry): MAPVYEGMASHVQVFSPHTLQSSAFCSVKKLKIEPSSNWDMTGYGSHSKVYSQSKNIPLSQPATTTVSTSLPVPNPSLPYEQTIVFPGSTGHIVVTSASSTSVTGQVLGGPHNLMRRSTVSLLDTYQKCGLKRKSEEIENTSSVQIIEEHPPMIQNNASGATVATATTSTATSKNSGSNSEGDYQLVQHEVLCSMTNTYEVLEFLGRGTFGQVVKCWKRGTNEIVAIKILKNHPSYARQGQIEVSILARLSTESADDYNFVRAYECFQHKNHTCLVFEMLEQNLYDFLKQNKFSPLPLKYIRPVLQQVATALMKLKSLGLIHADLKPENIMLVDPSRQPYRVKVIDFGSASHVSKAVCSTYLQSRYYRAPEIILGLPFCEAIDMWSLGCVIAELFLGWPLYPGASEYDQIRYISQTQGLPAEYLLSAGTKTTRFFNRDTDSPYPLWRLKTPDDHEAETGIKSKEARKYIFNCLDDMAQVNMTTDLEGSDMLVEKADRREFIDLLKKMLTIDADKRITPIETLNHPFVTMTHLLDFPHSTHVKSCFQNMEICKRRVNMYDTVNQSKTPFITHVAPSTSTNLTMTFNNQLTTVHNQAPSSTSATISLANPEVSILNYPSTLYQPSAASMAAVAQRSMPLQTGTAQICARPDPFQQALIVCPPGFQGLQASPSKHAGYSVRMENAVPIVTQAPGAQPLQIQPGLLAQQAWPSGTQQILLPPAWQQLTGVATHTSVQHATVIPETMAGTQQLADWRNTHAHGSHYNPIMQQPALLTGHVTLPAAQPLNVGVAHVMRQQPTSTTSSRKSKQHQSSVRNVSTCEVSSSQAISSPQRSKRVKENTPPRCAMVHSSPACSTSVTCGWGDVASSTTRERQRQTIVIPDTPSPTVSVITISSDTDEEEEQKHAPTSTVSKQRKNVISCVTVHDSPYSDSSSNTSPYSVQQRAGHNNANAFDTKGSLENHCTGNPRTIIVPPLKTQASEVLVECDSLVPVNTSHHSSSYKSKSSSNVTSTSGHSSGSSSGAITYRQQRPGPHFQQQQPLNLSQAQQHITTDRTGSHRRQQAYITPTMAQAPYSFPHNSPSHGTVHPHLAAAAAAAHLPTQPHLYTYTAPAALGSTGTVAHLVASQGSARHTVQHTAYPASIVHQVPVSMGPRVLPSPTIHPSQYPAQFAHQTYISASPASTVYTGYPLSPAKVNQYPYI

Turning to `Nc1nccc2c(Br)cc3cc(C(=O)[O-])ccc3c12.[Na+]` [Compound 29, Sodium 1-amino-5-bromobenzo[h]isoquinoline-8-carboxylate], the IC50 at CDK19 (inactive) was < 300 nM; at HIPK2, < 300 nM; at CSNK2A1 (CK2 alpha 1), < 300 nM; in the data set on SET-2 (168 h, SET-2, day 7, read-out: Cell viability IC50), < 1000 nM; in the data set with SET-2 (SET-2, text statement, read-out: potency in cell viability assay), < 1000 nM; in the data set on A549 it was 1000 to 10000 nM. Moreover, the IC50 was 1000 to 10000 nM with HCT116; 1000 to 10000 nM in the data set on A549-BRM3; 1000 to 10000 nM with MSTO-211H; < 1000 nM in the data set on Colo205; < 1000 nM in the data set with CLL-119; 1000 to 10000 nM in the data set on U-251. In addition, in the data set on MV-4-11 xenograft, the Body weight result is recorded as “didn't suffer from weight loss”. The “Tumor volume vs control group” value with MV-4-11 xenograft (last measurement point) was “only about half the size of tumors from the control group”.
